Measurements published in ChEMBL document CHEMBL5329202, “New aryl-/heteroarylpiperazine derivatives of 1,7-dimethyl-8,9-diphenyl-4-azatricyclo[5.2.1.02,6]dec-8-ene-3,5,10-trione: Synthesis and preliminary studies of biological activities” (Bioorg Med Chem, 2023).
pEC50, pIC50: −log10 of the molar value.

Assays:
HCT-116 [1] = assay: Induction of apoptosis in human HCT-116 cells assessed as late apoptotic cells at IC50 incubated for 72 hrs by Annexin V-FITC/PI staining based flow cytometric analysis (reference value: 1.6 %); format: functional
HMEC-1 [2] = assay: Induction of apoptosis in human HMEC-1 cells assessed as late apoptotic cells at IC50 incubated for 72 hrs by Annexin V-FITC/PI staining based flow cytometric analysis (reference value: 4.7 %); format: functional
K562 [3] = assay: Antiproliferative activity against human K562 cells assessed as reduction in cell viability at IC50 measured after 72 hrs by trypan blue dye based assay relative to control; format: functional
SW-620 = assay: Cytotoxicity against human SW620 cells assessed as cell growth inhibition measured after 72 hrs by MTT assay; format: functional, cell-based; details: SW-620, 72 h
MDA-MB-231 = assay: Cytotoxicity against human MDA-MB-231 cells assessed as cell growth inhibition measured after 72 hrs by MTT assay; format: functional, cell-based; details: MDA-MB-231, 72 h
[4] = Selectivity index, ratio of IC50 for cytotoxicity against human HMEC-1 cells to IC50 for cytotoxicity against human SW620 cells
HepG2 = assay: Cytotoxicity against human HepG2 cells assessed as cell growth inhibition measured after 72 hrs by MTT assay; format: functional, cell-based; details: HepG2, 72 h
HMEC-1 [5] = assay: Induction of apoptosis in human HMEC-1 cells assessed as early apoptotic cells at IC50 incubated for 72 hrs by Annexin V-FITC/PI staining based flow cytometric analysis (reference value: 2.4 %); format: functional
HCT-116 [6] = assay: Cytotoxicity against human HCT-116 cells assessed as cell growth inhibition measured after 72 hrs by MTT assay; format: functional, cell-based; details: HCT-116, 72 h
K562 [7] = assay: Induction of apoptosis in human K562 cells assessed as necrotic cells at IC50 incubated for 72 hrs by Annexin V-FITC/PI staining based flow cytometric analysis (reference value: 7.1 %); format: functional
HCT-116 [8] = assay: Induction of apoptosis in human HCT-116 cells assessed as necrotic cells at IC50 incubated for 72 hrs by Annexin V-FITC/PI staining based flow cytometric analysis (reference value: 0.1 %); format: functional
[9] = Selectivity index, ratio of IC50 for cytotoxicity against human HMEC-1 cells to IC50 for cytotoxicity against human A549 cells; format: toxicity, cell-based; details: HMEC-1 cells and A549 cells, read-out: Ratio IC50
K562 [10] = assay: Antiproliferative activity against human K562 cells assessed as reduction in cell number at IC50 measured after 72 hrs by trypan blue dye based assay relative to control; format: functional; set-up: scale not given: the % may be the effect or the level left
[11] = Selectivity index, ratio of IC50 for cytotoxicity against human HMEC-1 cells to IC50 for cytotoxicity against human K562 cells; format: toxicity, cell-based; details: HMEC-1 cells and K562 cells, read-out: Ratio IC50
D(2) dopamine receptor = D(2) dopamine receptor (Rattus norvegicus, UniProt P61169); assay: Antagonist activity at Sprague-Dawley rat striatum membrane D2 receptor assessed as inhibition of dopamine stimulated [35S]GTPgammaS binding measured after 90 mins by scintillation counter analysis; format: functional, cell membranes
D(2) dopamine receptor, sequence (P61169 whole entry): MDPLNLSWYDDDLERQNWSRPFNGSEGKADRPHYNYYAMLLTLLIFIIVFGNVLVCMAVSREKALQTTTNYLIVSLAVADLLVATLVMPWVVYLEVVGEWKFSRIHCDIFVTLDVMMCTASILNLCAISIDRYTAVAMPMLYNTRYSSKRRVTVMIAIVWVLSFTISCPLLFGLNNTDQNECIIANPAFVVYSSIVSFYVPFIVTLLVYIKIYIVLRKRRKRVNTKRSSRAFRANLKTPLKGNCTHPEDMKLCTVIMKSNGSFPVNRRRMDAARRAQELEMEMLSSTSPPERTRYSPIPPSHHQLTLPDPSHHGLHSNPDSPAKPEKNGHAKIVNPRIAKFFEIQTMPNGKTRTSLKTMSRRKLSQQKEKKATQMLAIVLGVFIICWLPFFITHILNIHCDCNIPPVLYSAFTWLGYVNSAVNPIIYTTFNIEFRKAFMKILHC

HMEC-1 [12] = assay: Induction of apoptosis in human HMEC-1 cells assessed as viable cells at IC50 incubated for 72 hrs by Annexin V-FITC/PI staining based flow cytometric analysis (reference value: 90.6 %); format: functional
[13] = Selectivity index, ratio of IC50 for cytotoxicity against human HMEC-1 cells to IC50 for cytotoxicity against human HCT-116 cells; format: toxicity, cell-based; details: HMEC-1 cells and HCT-116 cells, read-out: Ratio IC50
K562 [14] = assay: Induction of apoptosis in human K562 cells assessed as increase in caspase-3/7 activity at IC50 incubated for 24 hrs by Glo assay relative to control; format: functional
HMEC-1 [15] = assay: Antiproliferative activity against human HMEC-1 cells assessed as reduction in cell viability at IC50 measured after 72 hrs by trypan blue dye based assay relative to control; format: toxicity; details: hmec-1, 72 h
[16] = Selectivity index, ratio of IC50 for cytotoxicity against human HMEC-1 cells to IC50 for cytotoxicity against human MDA-MB-231 cells; format: toxicity, cell-based; details: HMEC-1 cells and MDA-MB-231 cells, read-out: Ratio IC50
[17] = Selectivity index, ratio of IC50 for cytotoxicity against human HMEC-1 cells to IC50 for cytotoxicity against human PC-3 cells; format: toxicity, cell-based; details: HMEC-1 cells and PC-3 cells, read-out: Ratio IC50
[18] = Selectivity index, ratio of IC50 for cytotoxicity against human HMEC-1 cells to IC50 for cytotoxicity against human SW480 cells
HCT-116 [19] = assay: Antiproliferative activity against human HCT-116 cells assessed as reduction in cell viability at IC50 measured after 72 hrs by trypan blue dye based assay relative to control; format: functional
[20] = Cytotoxicity against human HMEC-1 cells assessed as cell growth inhibition measured after 72 hrs by MTT assay; format: toxicity, cell-based
[21] = target: T1, 5-hydroxytryptamine receptor 1A (Rattus norvegicus, UniProt P19327); assay: Agonist activity at Sprague-Dawley rat hippocampal membrane 5-HT1A receptor assessed as stimulation of [35S]GTPgammaS binding measured after 90 mins by scintillation counter analysis; format: functional, cell membranes, Hippocampus
T1 sequence (P19327 whole entry): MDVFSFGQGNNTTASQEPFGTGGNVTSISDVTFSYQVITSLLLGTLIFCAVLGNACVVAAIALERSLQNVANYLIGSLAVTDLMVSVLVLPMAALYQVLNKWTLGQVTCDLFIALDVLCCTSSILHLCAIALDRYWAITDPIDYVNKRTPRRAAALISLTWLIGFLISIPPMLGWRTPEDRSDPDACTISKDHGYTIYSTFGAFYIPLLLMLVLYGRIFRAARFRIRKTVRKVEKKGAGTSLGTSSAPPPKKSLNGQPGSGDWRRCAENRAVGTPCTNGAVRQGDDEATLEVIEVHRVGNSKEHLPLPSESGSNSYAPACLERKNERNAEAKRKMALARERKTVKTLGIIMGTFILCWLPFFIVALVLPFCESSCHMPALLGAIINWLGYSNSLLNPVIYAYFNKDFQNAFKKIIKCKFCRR

PC-3 = assay: Cytotoxicity against human PC-3 cells assessed as cell growth inhibition measured after 72 hrs by MTT assay; format: functional, cell-based; details: PC-3, 72 h
K562 [22] = assay: Induction of apoptosis in human K562 cells assessed as early apoptotic cells at IC50 incubated for 72 hrs by Annexin V-FITC/PI staining based flow cytometric analysis (reference value: 1.3 %); format: functional
K562 [23] = assay: Cytotoxicity against human K562 cells assessed as cell growth inhibition measured after 72 hrs by MTT assay; format: functional, cell-based; details: K562, 72 h
A549 = assay: Cytotoxicity against human A549 cells assessed as cell growth inhibition measured after 72 hrs by MTT assay; format: functional, cell-based; details: A549, 72 h
K562 [24] = assay: Induction of apoptosis in human K562 cells assessed as late apoptotic cells at IC50 incubated for 72 hrs by Annexin V-FITC/PI staining based flow cytometric analysis (reference value: […]); format: functional
HMEC-1 [25] = assay: Induction of apoptosis in human HMEC-1 cells assessed as necrotic cells at IC50 incubated for 72 hrs by Annexin V-FITC/PI staining based flow cytometric analysis (reference value: 2.4 %); format: functional
K562 [26] = assay: Induction of apoptosis in human K562 cells assessed as viable cells at IC50 incubated for 72 hrs by Annexin V-FITC/PI staining based flow cytometric analysis (reference value: 89 %); format: functional

SMILES | Activity (HCT-116 [1]) [%] | Activity (HMEC-1 [2]) [%] | Activity (K562 [3]) [%] | pIC50 (SW-620) | pIC50 (MDA-MB-231) | Ratio IC50 [4] | pIC50 (HepG2) | Activity (HMEC-1 [5]) [%] | pIC50 (HCT-116 [6]) | Activity (K562 [7]) [%] | Activity (HCT-116 [8]) [%] | selectivity ratio [9] | Activity (K562 [10]) [%] | selectivity ratio [11] | pIC50 (D(2) dopamine receptor) | Activity (HMEC-1 [12]) [%] | selectivity ratio [13] | Activity (K562 [14]) [%] | Activity (HMEC-1 [15]) | selectivity ratio [16] | also measured
CC12C(=O)C(C)(C(c3ccccc3)=C1c1ccccc1)C1C(=O)N(CCCCN3CCN(c4ccccc4F)CC3)C(=O)C12 (stereo not drawn) | 1.9 | 7.3 | 30 | 4.65 | 4.25 | 0.79 | 4.57 | 1.9 | 5.35 | 10.6 | 0.2 | 0.58 | 82 | 3.13 | 4.74 | 85.8 | 3.95 | 74 | Non-Toxic | 0.31 | selectivity ratio [17]: 1.92; Ratio IC50 [18]: 2.28; Activity (HCT-116 [19]): 35%; IC50 at 72 h [20]: 17.7 µM; pEC50 [21]: 5.77; pIC50 (PC-3): 5.04; Activity (K562 [22]): 5.2%; pIC50 (K562 [23]): 5.25; pIC50 (A549): 4.51; Activity (K562 [24]): 27.3%; Activity (HMEC-1 [25]): 5%; Activity (K562 [26]): 56.9%
CC12C(=O)C(C)(C(c3ccccc3)=C1c1ccccc1)C1C(=O)N(CCCCN3CCN(c4ccccn4)CC3)C(=O)C12 (stereo not drawn) | 2.1 | 1.4 | 37 | 4.80 | 4.82 | 2.29 | 4.84 | 1.4 | 5.08 | 13.7 | 0.4 | 2.28 | 79 | 4.13 | 4.30 | 95.5 | 4.37 | 74 | Non-Toxic | 2.41 | selectivity ratio [17]: 1.73; Ratio IC50 [18]: 3.02; Activity (HCT-116 [19]): 17%; IC50 at 72 h [20]: 36.6 µM; pEC50 [21]: 6.15; pIC50 (PC-3): 4.67; Activity (K562 [22]): 6.3%; pIC50 (K562 [23]): 5.05; pIC50 (A549): 4.79; Activity (K562 [24]): 43.8%; Activity (HMEC-1 [25]): 1.6%; Activity (K562 [26]): 36.1%
CC12C(=O)C(C)(C(c3ccccc3)=C1c1ccccc1)C1C(=O)N(CCCCN3CCN(c4ccccc4Cl)CC3)C(=O)C12 (stereo not drawn) | 5 | 4.7 | 30 | 5.21 | 4.61 | 3.33 | 4.89 | 3.5 | 5.45 | 8.4 | 0.6 | 0.82 | 61 | 5.15 | 5.08 | 86.7 | 5.77 | 22 | Non-Toxic | 0.85 | selectivity ratio [17]: 2.63; Ratio IC50 [18]: 3.9; Activity (HCT-116 [19]): 30%; IC50 at 72 h [20]: 20.6 µM; pEC50 [21]: 7.00; pIC50 (PC-3): 5.11; Activity (K562 [22]): 5.2%; pIC50 (K562 [23]): 5.40; pIC50 (A549): 4.60; Activity (K562 [24]): 19.4%; Activity (HMEC-1 [25]): 5.1%; Activity (K562 [26]): 67%
COc1ccccc1N1CCN(CCCCN2C(=O)C3C(C2=O)C2(C)C(=O)C3(C)C(c3ccccc3)=C2c2ccccc2)CC1 (stereo not drawn) | 2.3 | 1.8 | 44 | 5.32 | 4.53 | 6.3 | 4.80 | 2.2 | 5.05 | 20.4 | 0.1 | 1.86 | 88 | 4.47 | 4.94 | 94.3 | 3.4 | 22 | Non-Toxic | 1.03 | selectivity ratio [17]: 2.07; Ratio IC50 [18]: 4.08; Activity (HCT-116 [19]): 34%; IC50 at 72 h [20]: 30.2 µM; pEC50 [21]: 8.22; pIC50 (PC-3): 4.84; Activity (K562 [22]): 5.9%; pIC50 (K562 [23]): 5.17; pIC50 (A549): 4.79; Activity (K562 [24]): 51.3%; Activity (HMEC-1 [25]): 1.7%; Activity (K562 [26]): 22.4%
